Laboratory results published in US10703743B2 (priority 2010, dated 2020).
Like-named read-outs stand apart in the source and are kept apart here.

Columns and labels:
gp120-CD4 interaction = gp120-CD4 interaction (Human immunodeficiency virus type 1 group M subtype B, UniProt P03375); experiment: biochemical; assay type: binding, HIV-1
MT-2 = MT-2 activity; assay type: cell-based; settings: Homo sapiens, MT2
HIV-1 isolate HXBc2 = experiment: viral inhibition assay, HIV-1 isolate HXBc2; assay type: cell-based; settings: Human immunodeficiency virus 1, TZM-b1, read-out: IC50 HXBc2
Experimental: (§1) In this assay, viral inhibition was determined by HIV Tat-induced luciferase (Luc) reporter gene expression after a single round of virus infection in TZM-b1 cells according to the method of Platt, et al., J. Virol. 1998, 72, 2855-64.

HIV-1 isolate BaL = experiment: viral inhibition assay, HIV-1 isolate BaL; assay type: cell-based
Experimental: as §1

HIV-1 isolate ADA = experiment: viral inhibition assay, HIV-1 isolate ADA; assay type: cell-based
Experimental: as §1

HIV-1 isolate JR-FL = experiment: viral inhibition assay, HIV-1 isolate JR-FL; assay type: cell-based; settings: Human immunodeficiency virus 1, TZM-b1, read-out: IC50 JR-FL
Experimental: as §1

HIV-1 isolate SF162 = experiment: viral inhibition assay, HIV-1 isolate SF162; assay type: cell-based; settings: Human immunodeficiency virus 1, TZM-b1, read-out: IC50 SF162
Experimental: as §1

| SMILES | IC50 (gp120-CD4 interaction) [µM] | IC50 (MT-2) [µM] | further results |
| --- | --- | --- | --- |
| COc1ccc(-c2ccc(CNC(=O)COCCOCCOCCOCCn3cc(COCCOCCOCCOCCNc4ccc([N+](=O)[O-])cc4[N+](=O)[O-])nn3)o2)c2[nH]cc(C(=O)C(=O)N3CCN(C(=O)c4ccccc4C)CC3)c12 | 5.14 | ~25 | – |
| COc1ccc(-c2ccc(CNC(=O)COCCOCCOCCOCCn3cc(COCCOCCOCCOCCNc4ccc([N+](=O)[O-])cc4[N+](=O)[O-])nn3)o2)c2[nH]cc(C(=O)C(=O)N3CCN(C(=O)c4cccc(C)c4)CC3)c12 | 1.36 | ~0.6 | – |
| COc1ccc(-c2ccc(CNC(=O)COCCOCCOCCOCCn3cc(COCCOCCOCCOCCNc4ccc([N+](=O)[O-])cc4[N+](=O)[O-])nn3)o2)c2[nH]cc(C(=O)C(=O)N3CCN(C(=O)c4ccc(C)cc4)CC3)c12 | 0.447 | 0.025 | – |
| CCc1ccc(C(=O)N2CCN(C(=O)C(=O)c3c[nH]c4c(-c5ccc(CNC(=O)COCCOCCOCCOCCn6cc(COCCOCCOCCOCCNc7ccc([N+](=O)[O-])cc7[N+](=O)[O-])nn6)o5)ccc(OC)c34)CC2)cc1 | 0.469 | ~0.6 | – |
| COc1ccc(-c2ccc(CNC(=O)COCCOCCOCCOCCn3cc(COCCOCCOCCOCCNc4ccc([N+](=O)[O-])cc4[N+](=O)[O-])nn3)o2)c2[nH]cc(C(=O)C(=O)N3CCN(C(=O)c4ccc(C(C)C)cc4)CC3)c12 | 0.953 | – | – |
| COc1ccc(-c2ccc(CNC(=O)COCCOCCOCCOCCn3cc(COCCOCCOCCOCCNc4ccc([N+](=O)[O-])cc4[N+](=O)[O-])nn3)o2)c2[nH]cc(C(=O)C(=O)N3CCN(C(=O)c4ccc5ccccc5c4)CC3)c12 | 5.24 | ~5 | – |
| COc1ccc(-c2ccc(CNC(=O)COCCOCCOCCOCCn3cc(COCCOCCOCCOCCNc4ccc([N+](=O)[O-])cc4[N+](=O)[O-])nn3)o2)c2[nH]cc(C(=O)C(=O)N3CCN(C(=O)c4ccccc4O)CC3)c12 | 0.49 | 0.2 | – |
| COc1ccc(-c2ccc(CNC(=O)COCCOCCOCCOCCn3cc(COCCOCCOCCOCCNc4ccc([N+](=O)[O-])cc4[N+](=O)[O-])nn3)o2)c2[nH]cc(C(=O)C(=O)N3CCN(C(=O)c4cccc(O)c4)CC3)c12 | 0.2 | 0.09 | – |
| COc1ccc(-c2ccc(CNC(=O)COCCOCCOCCOCCn3cc(COCCOCCOCCOCCNc4ccc([N+](=O)[O-])cc4[N+](=O)[O-])nn3)o2)c2[nH]cc(C(=O)C(=O)N3CCN(C(=O)c4ccc(O)cc4)CC3)c12 | 0.239 | 0.09 | – |
| COc1ccc(-c2ccc(CNC(=O)COCCOCCOCCOCCn3cc(COCCOCCOCCOCCNc4ccc([N+](=O)[O-])cc4[N+](=O)[O-])nn3)o2)c2[nH]cc(C(=O)C(=O)N3CCN(C(=O)c4cc(O)cc(O)c4)CC3)c12 | 0.745 | 0.23 | – |
| COc1ccc(-c2ccc(CNC(=O)COCCOCCOCCOCCn3cc(COCCOCCOCCOCCNc4ccc([N+](=O)[O-])cc4[N+](=O)[O-])nn3)o2)c2[nH]cc(C(=O)C(=O)N3CCN(C(=O)c4ccc(CO)cc4)CC3)c12 | 0.422 | ~1 | – |
| COc1ccc(-c2ccc(CNC(=O)COCCOCCOCCOCCn3cc(COCCOCCOCCOCCNc4ccc([N+](=O)[O-])cc4[N+](=O)[O-])nn3)o2)c2[nH]cc(C(=O)C(=O)N3CCN(C(=O)c4ccccn4)CC3)c12 | 0.62 | 0.048 | – |
| COc1ccc(-c2ccc(CNC(=O)COCCOCCOCCOCCn3cc(COCCOCCOCCOCCNc4ccc([N+](=O)[O-])cc4[N+](=O)[O-])nn3)o2)c2[nH]cc(C(=O)C(=O)N3CCN(C(=O)c4cccnc4)CC3)c12 | 3.7 | 1.3 | – |
| COc1ccc(-c2ccc(CNC(=O)COCCOCCOCCOCCn3cc(COCCOCCOCCOCCNc4ccc([N+](=O)[O-])cc4[N+](=O)[O-])nn3)o2)c2[nH]cc(C(=O)C(=O)N3CCN(C(=O)c4ccncc4)CC3)c12 | 4.7 | 9.3 | – |
| COc1ccnc2[nH]cc(C(=O)C(=O)N3CCN(C(=O)c4ccccc4)C[C@H]3C)c12 [BMS-378806, 4-benzoyl-1-(2-(4-methoxy-1H-pyrrolo(2,3-b)pyridin-3-yl)-1,2-dioxoethyl)-2-methyl-, (2R)-Piperazine, reference compound] | – | – | IC50 (HIV-1 isolate HXBc2): 0.0319 µM; IC50 BaL (HIV-1 isolate BaL; HIV Tat-induced luciferase reporter gene expression after a single round of virus infection in TZM-b1 cells): dnc; IC50 (HIV-1 isolate ADA; Human immunodeficiency virus 1, HIV Tat-induced luciferase reporter gene expression after a single round of virus infection in TZM-b1 cells, read-out: IC50 ADA): 0.344 µM; IC50 (HIV-1 isolate JR-FL): 2.6 µM; IC50 (HIV-1 isolate SF162): 0.359 µM |
| COc1ccc(-c2ccc(CNC(=O)COCCOCCOCCOCCOCCOCCn3cc(COCCOCCOCCOCCNc4ccc([N+](=O)[O-])cc4[N+](=O)[O-])nn3)o2)c2[nH]cc(C(=O)C(=O)N3CCN(C(=O)c4ccccc4)CC3)c12 [C5-furan] | – | – | IC50 (HIV-1 isolate HXBc2): 0.0103 µM; IC50 (HIV-1 isolate BaL; Human immunodeficiency virus 1, BAL, TZM-b1, read-out: IC50 BaL): 0.0348 µM; IC50 (HIV-1 isolate ADA; Human immunodeficiency virus 1, TZM-b1, read-out: IC50 ADA): 0.00635 µM; IC50 (HIV-1 isolate JR-FL): 0.00072 µM; IC50 (HIV-1 isolate SF162): 0.309 µM |
